Source: ChEMBL document CHEMBL1697731, “Cheminformatics analysis of assertions mined from literature that describe drug-induced liver injury in different species” (Chem Res Toxicol, 2010)

What was measured:
Hepatotoxicity [1] = assay: Literature-mined compound from Fourches et al multi-species drug-induced liver injury (DILI) dataset, effect in non-rodents
Hepatotoxicity [2] = assay: Literature-mined compound from Fourches et al multi-species drug-induced liver injury (DILI) dataset, effect in rodents; conditions: rodentia
Hepatotoxicity [3] = assay: Literature-mined compound from Fourches et al multi-species drug-induced liver injury (DILI) dataset, effect in humans; conditions: human

Structure (SMILES)	Hepatotoxicity (Hepatotoxicity [1])	Hepatotoxicity (Hepatotoxicity [2])	Hepatotoxicity (Hepatotoxicity [3])	Hepatotoxicity (Hepatotoxicity [1]; Liver)	Hepatotoxicity (Hepatotoxicity [2]; Liver)	Hepatotoxicity (Hepatotoxicity [3]; Liver)
CC1=C(CCC(=O)O)c2cc3nc(cc4[nH]c(cc5[nH]c(cc1n2)c(C)c5C(C)O)c(C)c4C(C)O)C(C)=C3CCC(=O)O (centres undefined) [HAEMAPORPHYRIN]	no drug-induced liver injury reported	drug-induced liver injury reported	no drug-induced liver injury reported	–	–	–
O=C(CC1NCCCC1O)Cn1cnc2cc(Br)c(Cl)cc2c1=O (centres undefined) [HALOFUGINONE]	no drug-induced liver injury reported	drug-induced liver injury reported	drug-induced liver injury reported	–	–	–
O=C(CCCN1CCC(O)(c2ccc(Cl)cc2)CC1)c1ccc(F)cc1 [HALOPERIDOL]	drug-induced liver injury reported	drug-induced liver injury reported	drug-induced liver injury reported	–	–	–
FC(F)(F)C(Cl)Br (centres undefined) [HALOTHANE]	drug-induced liver injury reported	drug-induced liver injury reported	drug-induced liver injury reported	–	–	–
COc1ccc([C@@H]2CC(=O)c3c(O)cc(O[C@@H]4O[C@H](CO[C@@H]5O[C@@H](C)[C@H](O)[C@@H](O)[C@H]5O)[C@@H](O)[C@H](O)[C@H]4O)cc3O2)cc1O [HESPERIDIN]	no drug-induced liver injury reported	drug-induced liver injury reported	drug-induced liver injury reported	–	–	–
Oc1c(Cl)cc(Cl)c(Cl)c1Cc1c(O)c(Cl)cc(Cl)c1Cl [HEXACHLOROPHENE]	no drug-induced liver injury reported	drug-induced liver injury reported	no drug-induced liver injury reported	–	–	–
CC[C@H](c1ccc(O)cc1)[C@@H](CC)c1ccc(O)cc1 [HEXESTROL]	no drug-induced liver injury reported	drug-induced liver injury reported	no drug-induced liver injury reported	–	–	–
CCCCC(CC)CN1CN(CC(CC)CCCC)CC(C)(N)C1 (centres undefined) [HEXETIDINE]	no drug-induced liver injury reported	drug-induced liver injury reported	no drug-induced liver injury reported	–	–	–
CN1C(=O)NC(=O)C(C)(C2=CCCCC2)C1=O (centres undefined) [HEXOBARBITAL]	no drug-induced liver injury reported	drug-induced liver injury reported	no drug-induced liver injury reported	–	–	–
Cl.Cl.NCCc1c[nH]cn1 [HISTAMINE DIHYDROCHLORIDE]	–	–	–	no drug-induced liver injury reported	drug-induced liver injury reported	no drug-induced liver injury reported
NNc1nncc2ccccc12 [HYDRALAZINE]	–	–	–	drug-induced liver injury reported	drug-induced liver injury reported	drug-induced liver injury reported
NS(=O)(=O)c1cc2c(cc1Cl)NCNS2(=O)=O [HYDROCHLOROTHIAZIDE]	no drug-induced liver injury reported	no drug-induced liver injury reported	drug-induced liver injury reported	–	–	–
CC(=O)OCC(=O)[C@@]1(O)CC[C@H]2[C@@H]3CCC4=CC(=O)CC[C@]4(C)[C@H]3[C@@H](O)C[C@@]21C [HYDROCORTISONE ACETATE]	no drug-induced liver injury reported	drug-induced liver injury reported	no drug-induced liver injury reported	–	–	–
C[C@]12CCC(=O)C=C1CC[C@@H]1[C@@H]2[C@@H](O)C[C@@]2(C)[C@H]1CC[C@]2(O)C(=O)CO [HYDROCORTISONE]	drug-induced liver injury reported	drug-induced liver injury reported	drug-induced liver injury reported	–	–	–
Oc1ccc(O)cc1 [HYDROQUINONE]	–	–	–	no drug-induced liver injury reported	drug-induced liver injury reported	drug-induced liver injury reported
NC(=O)NO [HYDROXYUREA]	no drug-induced liver injury reported	drug-induced liver injury reported	drug-induced liver injury reported	–	–	–
OCCOCCN1CCN(C(c2ccccc2)c2ccc(Cl)cc2)CC1 (centres undefined) [HYDROXYZINE]	no drug-induced liver injury reported	no drug-induced liver injury reported	drug-induced liver injury reported	–	–	–
CNC(=O)[C@H]1O[C@@H](n2cnc3c(NCc4cccc(I)c4)ncnc32)[C@H](O)[C@@H]1O [IB-MECA]	no drug-induced liver injury reported	drug-induced liver injury reported	no drug-induced liver injury reported	–	–	–
CC(C)Cc1ccc(C(C)C(=O)O)cc1 (centres undefined) [IBUPROFEN]	no drug-induced liver injury reported	drug-induced liver injury reported	drug-induced liver injury reported	–	–	–

Structure (SMILES)	Hepatotoxicity (Hepatotoxicity [1])	Hepatotoxicity (Hepatotoxicity [2])	Hepatotoxicity (Hepatotoxicity [3])	Hepatotoxicity (Hepatotoxicity [1]; Liver)	Hepatotoxicity (Hepatotoxicity [2]; Liver)	Hepatotoxicity (Hepatotoxicity [3]; Liver)
CC/C=C\C/C=C\C/C=C\C/C=C\C/C=C\CCCC(=O)O [ICOSAPENT]	no drug-induced liver injury reported	drug-induced liver injury reported	drug-induced liver injury reported	–	–	–
COC1=C(OC)C(=O)C(CCCCCCCCCCO)=C(C)C1=O [IDEBENONE]	no drug-induced liver injury reported	drug-induced liver injury reported	no drug-induced liver injury reported	–	–	–
CC/C(=C(\c1ccc(I)cc1)c1ccc(OCCN2CCCC2)cc1)c1ccccc1 [IDOXIFENE]	no drug-induced liver injury reported	drug-induced liver injury reported	no drug-induced liver injury reported	–	–	–
O=P1(NCCCl)OCCCN1CCCl (centres undefined) [IFOSFAMIDE]	no drug-induced liver injury reported	no drug-induced liver injury reported	drug-induced liver injury reported	–	–	–
CNC(=O)[C@H](Cc1c[nH]c2ccccc12)NC(=O)[C@@H](CC(=O)NO)CC(C)C [ILOMASTAT]	no drug-induced liver injury reported	drug-induced liver injury reported	no drug-induced liver injury reported	–	–	–
CC#CCC(C)[C@H](O)/C=C/[C@@H]1[C@H]2C/C(=C/CCCC(=O)O)C[C@H]2C[C@H]1O (some centres undefined) [ILOPROST]	no drug-induced liver injury reported	drug-induced liver injury reported	no drug-induced liver injury reported	–	–	–
CS(=O)(=O)O.Cc1ccc(NC(=O)c2ccc(CN3CCN(C)CC3)cc2)cc1Nc1nccc(-c2cccnc2)n1 [IMATINIB MESYLATE]	no drug-induced liver injury reported	drug-induced liver injury reported	drug-induced liver injury reported	–	–	–
CN(C)CCCN1c2ccccc2CCc2ccccc21 [IMIPRAMINE]	no drug-induced liver injury reported	drug-induced liver injury reported	drug-induced liver injury reported	–	–	–
C#CC1(O)CCC2C3CCC4=CC(=O)CCC4C3C(=C)CC21CC (centres undefined) [IMPLANON]	no drug-induced liver injury reported	no drug-induced liver injury reported	drug-induced liver injury reported	–	–	–
Nc1cc(-c2ccncc2)c[nH]c1=O [INAMRINONE]	no drug-induced liver injury reported	drug-induced liver injury reported	no drug-induced liver injury reported	–	–	–
CC1Cc2ccccc2N1NC(=O)c1ccc(Cl)c(S(N)(=O)=O)c1 (centres undefined) [INDAPAMIDE]	no drug-induced liver injury reported	drug-induced liver injury reported	no drug-induced liver injury reported	–	–	–
CC1(C)C(/C=C/C=C/C=C/C=C2/N(CCCCS(=O)(=O)[O-])c3ccc4ccccc4c3C2(C)C)=[N+](CCCCS(=O)(=O)[O-])c2ccc3ccccc3c21.[Na+] [INDOCYANINE GREEN]	no drug-induced liver injury reported	drug-induced liver injury reported	no drug-induced liver injury reported	–	–	–
COc1ccc2c(c1)c(CC(=O)O)c(C)n2C(=O)c1ccc(Cl)cc1 [INDOMETHACIN]	drug-induced liver injury reported	drug-induced liver injury reported	drug-induced liver injury reported	–	–	–
OC[C@H]1O[C@@H](n2cnc3c(O)ncnc32)[C@H](O)[C@@H]1O [INOSINE]	no drug-induced liver injury reported	drug-induced liver injury reported	no drug-induced liver injury reported	–	–	–
O[C@H]1[C@H](O)[C@@H](O)[C@H](O)[C@@H](O)[C@H]1O [INOSITOL]	no drug-induced liver injury reported	no drug-induced liver injury reported	drug-induced liver injury reported	–	–	–
Cc1cnc(NCCCN(C)C)c2c1[nH]c1ccc3cc(O)ccc3c12 [INTOPLICINE]	no drug-induced liver injury reported	no drug-induced liver injury reported	drug-induced liver injury reported	–	–	–
O=C(CCCCC(=O)Nc1c(I)cc(I)c(C(=O)O)c1I)Nc1c(I)cc(I)c(C(=O)O)c1I [IODIPAMIDE]	drug-induced liver injury reported	drug-induced liver injury reported	no drug-induced liver injury reported	–	–	–
CC(=O)N(CC(O)CO)c1c(I)c(C(=O)NCC(O)CO)c(I)c(C(=O)NCC(O)CO)c1I (centres undefined) [IOHEXOL]	drug-induced liver injury reported	no drug-induced liver injury reported	no drug-induced liver injury reported	–	–	–
CC(C)NNC(=O)COc1ccc(Cl)cc1 [IPROCLOZIDE]	no drug-induced liver injury reported	no drug-induced liver injury reported	drug-induced liver injury reported	–	–	–
